# Data from article PMC9100779, “Simple and Expedient Access to Novel Fluorinated Thiazolo- and Oxazolo[3,2-a]pyrimidin-7-one Derivatives and Their Functionalization via Palladium-Catalyzed Reactions” (Molecules, 2022).
# Target: T1, human monoamine oxidase A (hMAO-A) (Homo sapiens, UniProt P21397)
# T1 construct: gene MAOA
# T1 sequence (P21397 1-527): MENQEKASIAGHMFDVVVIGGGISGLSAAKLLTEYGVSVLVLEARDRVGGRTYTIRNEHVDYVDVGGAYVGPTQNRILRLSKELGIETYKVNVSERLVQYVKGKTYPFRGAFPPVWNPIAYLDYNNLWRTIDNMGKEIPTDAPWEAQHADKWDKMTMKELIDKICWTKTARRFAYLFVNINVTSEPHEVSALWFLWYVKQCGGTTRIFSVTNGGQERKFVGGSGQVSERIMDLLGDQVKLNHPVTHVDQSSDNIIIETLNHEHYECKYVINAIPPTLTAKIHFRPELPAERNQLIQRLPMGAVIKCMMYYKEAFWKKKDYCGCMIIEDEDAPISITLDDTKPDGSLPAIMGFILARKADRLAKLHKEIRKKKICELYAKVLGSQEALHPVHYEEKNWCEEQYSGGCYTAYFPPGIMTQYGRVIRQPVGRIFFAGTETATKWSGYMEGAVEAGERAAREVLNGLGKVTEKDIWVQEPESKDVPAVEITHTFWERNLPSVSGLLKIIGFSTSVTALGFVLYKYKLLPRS
# Assay: in vitro hMAO-A enzyme inhibition assay with p-tyramine as substrate, serial dilution
# Assay type: biochemical
compound,measurement,value
"O=c1cc(C(F)(F)c2ccc(Br)cc2)n2cc(Br)sc2n1 [3g, 2-Bromo-5-[(4-bromophenyl)difluoromethyl]-7H-thiazolo[3,2-a]pyrimidin-7-one]",IC50,54.1 µM
